Results on 2 molecules are retold here after patent EP0362304B1, “CHEMICAL SENSORS EMPLOYING CATALYTIC ANTIBODIES” (IGEN, INC., priority 1987, dated 1989).

The subject of assay [1] is IgG designated catalytic antibody 48G7, monoclonal antibody elicited to the tetrahedral nitrophenyl phosphonate transition-state analogue (2). The assay is described as follows: Antibody-catalysed hydrolysis of carbonate (1), followed by the increase in absorbance at 400 nm (nitrophenolate ion release), Michaelis-Menten kinetics. It counts as biochemical, BALB/C mice. The protocol:
BALB/C mice were immunized with the BSA-phosphonate conjugate emulsified in complete Freund's adjuvant. A fusion was carried out by standard methods using SP2/0 myeloma as the fusion partner. IgG was purified from ascites fluid by affinity chromatography on protein A coupled Sepharose 4B and dialyzed exhaustively against reaction buffer.
The rates of hydrolysis of carbonate I (1) in the presence (kobsd) and the absence (kun) of 4.4 µM antibody were determined as a function of substrate concentration. Carbonate hydrolysis was followed in 10 mM Tris-HCl, pH 8.5 at 30°C, by following the increase in absorbance at 400 nm due to nitrophenolate ion release.

The test system of a further assay is catalytic antibody 48G7. The assay is described as follows: pH-based catalytic antibody biosensor: differential electrode response to MpNPC after incubation in transition state analog. The class given is biochemical, BALB/C mice. The note with it: electrodes incubated in 50 µM TSA; pH 8.5 buffer (0.14 M KCl, 0.01 M Tris, 0.02% sodium azide); substrate MpNPC. The text has this:
A pH-based catalytic antibody biosensor incorporating catalytic antibodies as enzyme mimics in a configuration similar to that of enzyme electrodes was used to measure the pH change resulting from the catalyzed hydrolysis of methyl p-nitrophenylcarbonate (MpNPC). […] The catalytic antibody 48G7 is synthesized and its catalytic activity identified in accordance with the methodology described in Example 1.
The catalytic antibody 48G7 produces a relatively small rate of acceleration as compared to natural enzymes. Consequently, the observed pH difference is small but is easily measurable in a reproducible manner. […] Two miniature pH electrodes 152 and 154 were employed and the difference between the two was monitored. […]
The electrical potential of the two miniature pH electrodes 152 and 154 (Microelectrodes Inc., model MI-404) was monitored relative to a single Ag/AgCl reference electrode 156 in an nonthermostated vessel 158 as shown in Fig. 13 using two Keithley 617 electrometers 160. […]
The reference electrode 156 and the two pH electrodes 152 and 154 were placed in 2.5 ml of a pH 8.5 buffer (0.14 M KCl, 0.01 M Tris, 0.02% sodium azide) and allowed to stabilize for […]. […] The response to MpNPC was measured after approximately 12 hours in solution (not shown) but the remainder of the measurements were performed after approximately 36 hours in solution. […]

Where [2] appears, read: 4.4 µM antibody, 10 mM Tris-HCl, pH 8.5 at 30°C, first pair of values printed.
The mark [3] stands for this setting: second pair of values printed ("This IgG", designated 48G7).

What is called Km is the substrate concentration at which the rate is half of its maximum. One may read the kcat as the maximal rate divided by the concentration of active sites.

Consider `COC(=O)Oc1ccc([N+](=O)[O-])cc1` [carbonate (1), methyl p-nitrophenylcarbonate], for which, in assay [1] (setting [2]), the Km was 660 µM and the kcat was 0.0233 ± 0.00333 s⁻¹. Further, in assay [1] (antibody-catalysed versus background rate), the “rate acceleration above background” value is listed as 16,000. In assay [1] (setting [3]), the Km was 350 µM and the catalytic constant (kcat) worked out at 0.483 s⁻¹.
With `COP(=O)(O)Oc1ccc([N+](=O)[O-])cc1` [transition state analog (TSA), methyl p-nitrophenylphosphate], in the assay on catalytic antibody 48G7, the “inhibition of catalysis (MpNPC hydrolysis)” value is reported as “effectively inhibits the catalysis”.
